Experimental findings from patent US11365415B2, “Use of miR-223-3p as a cancer therapeutic and method for treating cancer using the same” (University of Florida Research Foundation, Inc., priority 2016, dated 2022) are described below.

Assay type in all cases: cell-based
For series [1], the system named is endogenous miR-223-3p in HL60 cells. Nature of the series: qRT-PCR of endogenous miR-223-3p in HL60 cells after Ara-C. The following applies: 50 μM Ara-C, different time points. The procedure:
Quantitative real time PCR (qRT-PCR) measuring endogenous miR-223 If miR-223-3p is a physiologic regulator of PARP1 expression, then its expression should be repressed after DNA damage, when higher levels of PARP1 are required to repair this damage. Mir223-3p is most highly expressed in hematopoietic cells, such as the HL60 cell line. HL60 cells were treated with 50 μM cytarabine (Ara-C) for lhr, 4 hr, 8 hr, 12 hr and 24 hr. Western blot analysis was performed to examine PARP1 protein levels in these samples. For measuring levels of miR-223-3p, cells were collected at the above time points, RNA isolated using the Qiagen RNeasy kit. cDNA conversion was then performed using first-strand cDNA synthesis kit for miRNA from Origene (HP100042). qRT-PCR for miR-223 3p was performed on a 7900HT Fast Real-Time PCR system (ABI) according to Origene protocol and ACT values were calculated. […]
Quantitative Real Time PCR (qRT-PCR) Measuring Endogenous miR223-3p. […] For measuring levels of miR223-3p, cells were collected at the above time points, RNA isolated using the Qiagen RNeasy kit. cDNA conversion was then performed using first-strand cDNA synthesis kit for miRNA from Origene (HP100042). qRT-PCR for miR223 3p was performed on a 7900HT Fast Real-Time PCR system (ABI) according to Origene protocol and ΔCT values were calculated. […]

For series [2], the system named is Human Mesothelioma cells (H-Meso 01A). Description: Colony formation of BAP1 mutant human mesothelioma cells treated with olaparib. The following applies: 3 olaparib, 10 days continuous. Here is the method:
These cells were treated with the PARP inhibitor, olaparib. Human Mesothelioma cells (H-Meso 01A) were cultured in RPMI media supplemented with 10% FBS and 1% Penicillin/Streptomycin. These cells were seeded in a 6-well plate at a density of 4000 cells/well and allowed to grow for 18 hours. Of the six wells, three wells were treated with […] (LC laboratories, Cat #0-9201) each and the other three wells were considered as controls. The cells were allowed to grow for 10 days. Olaparib stayed on the cells throughout the experiment. After 10 days of incubation, colonies were stained with 0.1% crystal violet in methanol and counted using Image J software. Olaparib killed at least 80-90% of the cells. The experiment was done three times, each in triplicates and the average from all three times was calculated (FIG. 24).

The subject of series [3] is UWB1.289 (ovarian cancer) cells, deficient in BRCA1. Nature of the series: Colony formation survival assay, UWB1.289. The note with it: UWB1.289, 25 nm miR-223-3p mimic, colonies counted after 14 days. The procedure:
(§1) Colony formation assays measures the ability of a single cell to not only survive, but also to proliferate. Thus, it is an indirect measurement of cancer stem cell activity, the ability of a single cell to give rise to a host of progeny. The BRCA1-deficient MDA-MB-436 breast cancer cells were cultured in DMEM supplemented with 10% FBS and 1% penicillin and streptomycin. BRRCA1-deficient UWB1.289 ovarian cancer cells were cultured and maintained in 50% MEBM medium with growth factors and 50% RPMI medium supplemented with 3% FBS and 1% penicillin and streptomycin. 25 nm of mirVana miR-223 3p mimic from Ambion life technologies (Cat #4464067) was used to deplete PARP1 protein in these cell lines. Mir223-3p was encapsulated into the lipid transfection complex, RNAiMAX. […] After 48 hours, the cells were trypsinized, counted and plated in 6 well plates at a density of 4000 cells per well, in triplicates. After 14 days of incubation, colonies were stained with 0.1% crystal violet in methanol and counted using Image J software. […]
(§2) Cell Culture, miRNA transfection and Survival Assay. […] After 48 hours, the cells were trypsinized, counted and plated in 6 well plates at a density of 4000 cells per well, in triplicates. After 14 days of incubation, colonies were stained with 0.1% crystal violet in methanol and counted using Image J software. […]

Series [4] concerns MDA-MB-436 (breast cancer) cells, deficient in BRCA1. Description: Colony formation survival assay, MDA-MB-436. The following applies: MDA-MB-436, 25 nm miR-223-3p mimic, colonies counted after 14 days. The procedure:
as §1, §2

A further series deals with aNHEJ. Description: Alternative non-homologous end joining (aNHEJ) assay in EJ2-GFP U2OS cells. The note with it: prior exposure to miR-223-3p, I-SceI expression. Here is the method:
PARP1 is involved in the initial step in aNHEJ DNA double strand break repair. If PARP1 is repressed, then aNHEJ is decreased. The EJ2-GFP U2OS system was used to assess aNHEJ. This reporter system contains single, integrated copy of reporter with I-SceI target sites. These sites were cleaved upon transfection of an I-SceI expression vector. Cells were transfected with miR-223 3p mimic using RNAiMAX. 24 hours after transfection, the cells were transfected with I-SceI vector using polyethylenimine (PEI). After 72 hours, EJ2 cells were trypsinized, washed with PBS and GFP-positive cells were measured using FACSort (Becton-Dickinson, San Jose, Calif.). The GFP positive cells are proportional to the aNHEJ frequency.
Alternative Non-Homologous End Joining (aNHEJ) assay. PARP1 is the initial step in aNHEJ DNA double strand break repair. If PARP1 is repressed, then aNHEJ will be decreased. The EJ2-GFP U2OS system was used to assess aNHEJ. This reporter system contains single, integrated copy of reporter with I-SceI target sites. These sites were cleaved upon transfection of an I-SceI expression vector. Cells were transfected with miR223 3p mimic using RNAiMAX. […] After 72 hours, EJ2 cells were trypsinized, washed with PBS and GFP-positive cells were measured using FACSort (Becton-Dickinson, San Jose, Calif.). […]

The test system of a further series is PARP1 3′ UTR mRNA. Nature of the series: Luciferase assay for stability of PARP1 3′ UTR mRNA in A549 cells. The following applies: normalized against Renilla luciferase. The procedure: A549 cells were transfected with miR-223-3p mimic using RNAiMAX as above. After 6 hours, these cells were transfected with PARP 3′UTR plasmid fused with dual luciferase reporter from GeneCopoeia using Lipofectamine 2000. 48 hours post-transfection, cells were collected and assessed for luciferase activity using Luc-Pair Dual Luciferase assay kit from GeneCopoeia. The firefly luciferase activity is normalized against Renilla luciferase, which serves as a transfection control.
Luciferase assay for assessing stability of PARP1 3′ UTR mRNA. A549 cells were transfected with miR223-3p mimic using RNAiMAX as above. After 6 hours, these cells were transfected with PARP 3′UTR plasmid fused with dual luciferase reporter from GeneCopoeia using Lipofectamine 2000. 48 hours post-transfection, cells were collected and assessed for luciferase activity using Luc-Pair Dual Luciferase assay kit from GeneCopoeia. The firefly luciferase activity is normalized against Renilla luciferase, which serves as a transfection control.

A further series has as its system PARP1. Description: Western analysis of PARP1 after exposure to miR-223-3p mimic. The following applies: for PARP1 protein expression (Western): breast and ovarian cell lines harboring BRCA1 mutant (MDA-MB-436, UWB1.289); for PARP1 repression/knockdown (Western): cell line not given, 25 nM mimic in FIG. 33. Here is the method:
Colony formation assays measures the ability of a single cell to not only survive, but also to proliferate. Thus, it is an indirect measurement of cancer stem cell activity, the ability of a single cell to give rise to a host of progeny. The BRCA1-deficient MDA-MB-436 breast cancer cells were cultured in DMEM supplemented with 10% FBS and 1% penicillin and streptomycin. BRRCA1-deficient UWB1.289 ovarian cancer cells were cultured and maintained in 50% MEBM medium with growth factors and 50% RPMI medium supplemented with 3% FBS and 1% penicillin and streptomycin. 25 nm of mirVana miR-223 3p mimic from Ambion life technologies (Cat #4464067) was used to deplete PARP1 protein in these cell lines. Mir223-3p was encapsulated into the lipid transfection complex, RNAiMAX. 25 nm of miR-223-3p was incubated in 500 μL Opti-MEM plus 6 μl of RNAiMAX for 20 mins at room temperature and then added to the cells for a final volume of 1 ml. After 48 hours, the cells were trypsinized, counted and plated in 6 well plates at a density of 4000 cells per well, in triplicates. After 14 days of incubation, colonies were stained with 0.1% crystal violet in methanol and counted using Image J software. PARP1 repression by miR-223-3p was shown by western blot. PARP1 antibody was purchased from Cell Signaling (46D11).
(§3) Cell Culture, miRNA transfection and Survival Assay. The BRCA1-deficient MDA-MB-436 breast cancer cells were cultured in DMEM supplemented with 10% FBS and 1% penicillin and streptomycin. BRRCA1-deficient UWB1.289 ovarian cancer cells were cultured and maintained in 50% MEBM medium with growth factors and 50% RPMI medium supplemented with 3% FBS and 1% penicillin and streptomycin. BAP1-mutant H2452 mesothelioma cells were cultured in RPMI 1640 medium supplemented with 10% fetal bovine serum and 1% penicillin and streptomycin. 25 nm of mirVana miR223-3p mimic from Ambion life technologies (Cat #4464067) was used to deplete PARP1 protein in these cell lines. Mir223-3p was encapsulated into the lipid transfection complex, RNAiMAX. 25 nm of mir223-3p was incubated in 500 µL Opti-MEM plus 6 ul of RNAiMAX for 20 mins at room temperature, and then added to the cells for a final volume of 1 ml. After 48 hours, the cells were trypsinized, counted and plated in 6 well plates at a density of 4000 cells per well, in triplicates. After 14 days of incubation, colonies were stained with 0.1% crystal violet in methanol and counted using Image J software. PARP1 repression by mir223-3p was shown by western blot. PARP1 antibody was purchased from Cell Signaling (46D11). FIG. 44 illustrates the depletion of other DNA repair components in addition to PARP1.

In series [5] the test system is MDA-MB-436 BRCA mutant cells. Description: Active replication forks analysis (BrdU foci), MDA-MB-436. The note with it: 72 hours after miRNA transfection, BrdU 30 minutes. Here is the method: Active Replication Forks Analysis. Active Replication forks after miR223-3p mimic transfection were measured using immunofluorescent detection of BrdU foci after DNA denaturation. Briefly, 72 hours after transfection, cells were released into fresh media containing 10 uM BrdU (BD Biosciences, Franklin Lakes, N.J.) for 30 min. After washing, cells on coverslip were fixed and the DNA denatured using hydrochloric acid for BrdU immunostaining. The coverslips were processed for immunostaining using BrdU-specific antibody (Cell Signaling, Danvers, Mass.) and then incubated with a secondary antibody conjugated with Alexa Fluor dye from Invitrogen for 1 h. Cells were analyzed as above using the laser scanning confocal microscope. At least five hundred cells were counted for each condition from at least six distinct slides per condition for statistical analysis.

The subject of series [6] is other DNA repair components as well as PARP1. Description: Western blot of DNA repair components after miR223-3p mimic. The following applies: MDA MB 436, HCC1937 and H2452 cells, 48 hours after transfection, vs scr control. The procedure:
as §3

`Nc1ccn([C@@H]2O[C@H](CO)[C@@H](O)[C@@H]2O)c(=O)n1` [Ara-C, cytarabine]: the “levels of endogenous miR-223-3p (qRT-PCR)” value in series [1] is listed as “gradual decrease”.
Consider `O=C(c1cc(Cc2n[nH]c(=O)c3ccccc23)ccc1F)N1CCN(C(=O)C2CC2)CC1` [Olaparib, olaparib], for which the “cells killed (colony formation)” value in [2] is listed as 80-90%.
For the molecule “miR-223-3p: mirVana miR-223 3p mimic from Ambion life technologies (Cat #4464067); miR-223-3p is SEQ ID NO: 75; transfected with RNAiMAX (UGUCAGUUUGUCAAAUACCCCA; listed as RNA, chemistry not given here) [mirVana miR-223 3p mimic from Ambion life technologies (Cat #4464067); transfected with RNAiMAX]”, the number of colonies result in [3] and in series [4] was “decreased number of colonies” in each case. Besides, the “fraction of EJ2 cells with productive aNHEJ (GFP positive cells)” value in the series on aNHEJ was “decreased”. Further, the “Luciferase expression (PARP1 3′ UTR linked to Firefly Luciferase)” value was “decreased” in the series on PARP1 3′ UTR mRNA and “inhibition of PARP1” in the series with PARP1 3′ UTR mRNA (listed as miR223-3p mimic). Moreover, the “PARP1 knockdown (Western)” value in the series on PARP1 (BAP1 mutant mesothelioma) and in the series on PARP1 (EJ2-GFP cell reporter system) was “knockdown of PARP1” in each case. In addition, the “PARP1 protein expression (Western)” value in the series on PARP1 was “represses PARP1 protein expression”; in the series on PARP1 (listed as mir223 mimic) it was “knockdown of PARP1”. Further, the figures for the “PARP1 repression/knockdown (Western)” value in the series with PARP1 and in the series with PARP1 (listed as miR223 mimic) were “Knockdown of PARP1” and “repression of PARP1”, respectively. For the same molecule, the “active replication forks (BrdU)” value in [5] was “decreases active replication forks”. Further, the “depletion of DNA repair components (Western)” value in series [6] is given as “depletes other DNA repair components as well as PARP1”.
